# Measurements published in patent US8669266B2, “Quinoline-carboxamide derivatives as P2Y12 antagonists” (Sanofi, priority 2007, dated 2014).
# Tested on: human platelet rich plasma
# Experiment: Inhibition of human platelet aggregation, "Born"-method in single cuvettes (ADP-induced, platelet rich plasma)
# Assay type: cell-based
# Conditions: Platelet, 0.1 h, human PRP, aggregation induced by ADP, measured over 6 minutes at 37° C.
# Procedure: Alternatively to a binding assay which measures a compound's ability to bind to the P2Y12 receptor, the effect on cellular function was also determined. This ability of the compound was evaluated in two platelet aggregation assays: in 96-well plates and with the “Born”-method using single cuvettes.
# Whole blood was collected from healthy volunteers using 20 ml syringes containing 2 ml of buffered Citrate. The anticoagulated whole blood was transferred into 15 ml polypropylene conical tubes (10 ml per tube). The tubes were centrifuged for 15 minutes at 340×g at RT without using the centrifuge brake. This procedure leads to a pellet of cellular components and a supernatant of platelet rich plasma (PRP). The PRP layer was collected from each tube and pooled for each donor. To avoid carry over of cellular components following centrifugation, approximately 5 ml of PRP was left in the tube. The platelet concentration was determined using a Coulter Counter.
# The 15 ml tubes containing the pellet of cellular components were centrifuged again for 10 minutes at 1940×g. This pelleted out most particulate blood constituents remaining, leaving a layer of Platelet Poor Plasma (PPP). The PPP was collected for each donor. The PRP layer, previously set aside, was diluted with PPP to a final concentration of approximately 3×E8 platelets/ml with the PPP.
# The human platelet aggregation assay is performed in single use cuvettes using the platelet aggregation profiler (PAP-4 or -8, Bio/Data corporation).
# In the assay cuvette 4 μl of test compound at 100× final concentration in DMSO is mixed with 392 μl fresh PRP and incubated for 2 minutes at 37° C. with 1.200 rpm stirring. Following that incubation period, 4 μl of 250 μM ADP is added to the reaction mix. This addition of ADP is sufficient to induce aggregation in the absence of an inhibitor. After that aggregation is measured over 6 minutes at 37° C. with 1.200 rpm stirring. Results of the assay are expressed as % inhibition, and are calculated using maximum aggregation (Tmax) or area under curve (AUC) of the absorbance over 6 minutes.
row,IC50,Molecule
1,0.18 µM,"CCOC(=O)N1CCN(C(=O)[C@H](CCC(=O)O)NC(=O)c2cc(OCC(=O)N3CCC[C@H]3C(=O)NC3CC3)c3ccc(C)cc3n2)CC1 [Example 3, 4-[(S)-4-Carboxy-2-({4-[2-((S)-2-cyclopropylcarbamoyl-pyrrolidin-1-yl)-2-oxo-ethoxy]-7-methyl-quinoline-2-carbonyl}-amino)-butyryl]-piperazine-1-carboxylic acid ethyl ester]"
2,0.24 µM,"CCOC(=O)N1CCN(C(=O)[C@H](CCC(=O)O)NC(=O)c2cc(OCC(=O)N3CCC[C@H]3C(=O)O)c3ccc(C)cc3n2)CC1 [Example 17, 4-[(S)-4-Carboxy-2-({4-[2-((S)-2-carboxy-pyrrolidin-1-yl)-2-oxo-ethoxy]-7-methyl-quinoline-2-carbonyl}-amino)-butyryl]-piperazine-1-carboxylic acid ethyl ester]"
3,0.16 µM,"CCOC(=O)N1CCN(C(=O)[C@H](CCC(=O)O)NC(=O)c2cc(OCC(=O)N3CCC(S(C)(=O)=O)C3)c3ccc(C)cc3n2)CC1 (stereo partly drawn) [Example 18, 4-[(S)-4-Carboxy-2-({4-[2-(3-methanesulfonyl-pyrrolidin-1-yl)-2-oxo-ethoxy]-7-methyl-quinoline-2-carbonyl}-amino)-butyryl]-piperazine-1-carboxylic acid ethyl ester]"
4,0.59 µM,"CCOC(=O)N1CCN(C(=O)[C@H](CCC(=O)O)NC(=O)c2cc(OCC(=O)N3CC[C@H](CO)C3)c3ccc(C)cc3n2)CC1 [Example 50, 4-[(S)-4-Carboxy-2-({4-[2-((S)-3-hydroxymethyl-pyrrolidin-1-yl)-2-oxo-ethoxy]-7-methyl-quinoline-2-carbonyl}-amino)-butyryl]-piperazine-1-carboxylic acid ethyl ester]"
5,0.31 µM,"CCOC(=O)N1CCN(C(=O)[C@H](CCC(=O)O)NC(=O)c2cc(OCC(=O)N3CC(O)CC3C(=O)OC)c3ccccc3n2)CC1 (stereo partly drawn) [Example 71, 4-[(S)-4-Carboxy-2-({4-[2-(4-hydroxy-2-methoxycarbonyl-pyrrolidin-1-yl)-2-oxo-ethoxy]-quinoline-2-carbonyl}-amino)-butyryl]-piperazine-1-carboxylic acid ethyl ester]"
6,0.19 µM,"CCOC(=O)[C@@H]1C[C@@H](O)CN1C(=O)COc1cc(C(=O)N[C@@H](CCC(=O)O)C(=O)N2CCN(C(=O)OCC)CC2)nc2ccccc12 [Example 75, 4-[(S)-4-Carboxy-2-({4-[2-((2S,4R)-2-ethoxycarbonyl-4-hydroxy-pyrrolidin-1-yl)-2-oxo-ethoxy]-quinoline-2-carbonyl}-amino)-butyryl]-piperazine-1-carboxylic acid ethyl ester]"
7,0.03 µM,"CCOC(=O)N1CCN(C(=O)[C@H](CCC(=O)O)NC(=O)c2cc(O[C@H](C)C(=O)N3CCC[C@H]3C(=O)NC3CCCC3)c3ccc(C)cc3n2)CC1 [Example 294, 4-[(S)-4-Carboxy-2-({4-[(R)-2-((S)-2-cyclopentylcarbamoyl-pyrrolidin-1-yl)-1-methyl-2-oxo-ethoxy]-7-methyl-quinoline-2-carbonyl}-amino)-butyryl]-piperazine-1-carboxylic acid ethyl ester]"
8,0.29 µM,"CCOC(=O)N1CCN(C(=O)[C@H](CCC(=O)O)NC(=O)c2cc(OCC(=O)N3CCCC3c3ccco3)c3ccccc3n2)CC1 (stereo partly drawn) [Example 317, 4-[(S)-4-Carboxy-2-({4-[2-(2-furan-2-yl-pyrrolidin-1-yl)-2-oxo-ethoxy]-quinoline-2-carbonyl}-amino)-butyryl]-piperazine-1-carboxylic acid ethyl ester]"
9,0.03 µM,"CCCCOC(=O)N1CCN(C(=O)CNC(=O)c2cc(OCC(=O)N3CCC[C@H]3C(=O)NC3CCC3)c3ccc(C)cc3n2)CC1 [Example 435, 4-[2-({4-[2-((S)-2-Cyclobutylcarbamoyl-pyrrolidin-1-yl)-2-oxo-ethoxy]-7-methyl-quinoline-2-carbonyl}-amino)-acetyl]-piperazine-1-carboxylic acid butyl ester]"
10,0.08 µM,"CCCCOC(=O)N1CCN(C(=O)[C@H](CCC(=O)O)NC(=O)c2cc(OCC(=O)N3CCC[C@H]3c3ccccc3)c3ccc(C)cc3n2)CC1 [Example 481, 4-[(S)-4-Carboxy-2-({7-methyl-4-[2-oxo-2-((S)-2-phenyl-pyrrolidin-1-yl)-ethoxy]-quinoline-2-carbonyl}-amino)-butyryl]-piperazine-1-carboxylic acid butyl ester]"
11,0.12 µM,"CCCCOC(=O)N1CCN(C(=O)[C@H](CCOC)NC(=O)c2cc(OCC(=O)N3CCC[C@H]3C(=O)NC3CCC3)c3ccc(C)cc3n2)CC1 [Example 521, 4-[(S)-2-({4-[2-((S)-2-Cyclobutylcarbamoyl-pyrrolidin-1-yl)-2-oxo-ethoxy]-7-methyl-quinoline-2-carbonyl}-amino)-4-methoxy-butyryl]-piperazine-1-carboxylic acid butyl ester]"
12,0.02 µM,"CCCCOC(=O)N1CCN(C(=O)CNC(=O)c2cc(OCC(=O)N3CCC[C@H]3C(=O)NC3CCCC3)c3ccc(C)cc3n2)CC1 [Example 594, 4-[2-({4-[2-((S)-2-Cyclopentylcarbamoyl-pyrrolidin-1-yl)-2-oxo-ethoxy]-7-methyl-quinoline-2-carbonyl}-amino)-acetyl]-piperazine-1-carboxylic acid butyl ester]"
13,0.0006 µM,"CCCCOC(=O)N1CCN(C(=O)CNC(=O)c2cc(OCC(=O)N3C[C@H](O)C[C@H]3C(=O)NC3CCC3)c3ccc(C)cc3n2)CC1 [Example 689, 4-[2-({4-[2-((2S,4R)-2-Cyclobutylcarbamoyl-4-hydroxy-pyrrolidin-1-yl)-2-oxo-ethoxy]-7-methyl-quinoline-2-carbonyl}-amino)-acetyl]-piperazine-1-carboxylic acid butyl ester]"
14,0.077 µM,"CCCCOC(=O)N1CCN(C(=O)[C@H](CCc2nnn(C)n2)NC(=O)c2cc(OCC(=O)N3CCC[C@H]3C(=O)NC3CCC3)c3ccc(C)cc3n2)CC1 [Example 693, 4-[(S)-2-({4-[2-((S)-2-Cyclobutylcarbamoyl-pyrrolidin-1-yl)-2-oxo-ethoxy]-7-methyl-quinoline-2-carbonyl}-amino)-4-(2-methyl-2H-tetrazol-5-yl)-butyryl]-piperazine-1-carboxylic acid butyl ester]"

# Same assay, conditions: human PRP, aggregation induced by ADP, measured over 6 minutes at 37° C.
row,IC50,Molecule
1,0.094 µM,4-{2-[(7-Methyl-4-{2-oxo-2-[4-(pyrrolidine-1-carbonyl)-piperidin-1-yl]-ethoxy}-quinoline-2-carbonyl)-amino]-acetyl}-piperazine-1-carboxylic acid butyl ester [Example 660]

# Molecular target: human P2Y12 receptor (Homo sapiens (Human), UniProt Q9H244)
# Experiment: Human P2Y12 recombinant cell membrane binding assay with 33P 2MeS-ADP
# Conditions: CHO cell membranes with recombinant human P2Y12; competition against 33P 2MeS-ADP
# Procedure: The ability of the compounds of the formula I to inhibit the P2Y12 receptor can be assessed by determining the concentration of the compound of the formula I that binds to the human P2Y12 Recombinant Cell Membrane Binding Assay with 33P 2MeS-ADP.
# Human P2Y12 Recombinant Cell Membrane Binding Assay
# The ability of a test compound to bind to the P2Y12 receptor was evaluated in a recombinant cell membrane binding assay. In this competitive binding assay, the test compound competed against a radiolabeled agonist for binding to the P2Y12 receptor, expressed on the cell membrane. Inhibition of binding of the labeled material was measured and correlated to the amount and potency of the test compound.
# As source of P2Y12, a membrane preparation was prepared from Chinese Hamster Ovary (CHO) cells with recombinant expression of the human P2Y12 receptor according to standard procedures.
# Next, wells were washed four times with 400 μl/well of stop buffer on a plate vacuum. The plate was disassembled and allowed to air dry overnight with the filter side up over night. […] The top of the filter plate was sealed with plastic plate covers. The sealed filter plate were incubated 2 hours at RT. A Microbeta Scintillation Counter was used to measure counts.
# Compounds were diluted as 10 mM DMSO stocks and tested in a four-point, five-fold dilution series run in triplicate beginning at 10 μM, final concentration. Data were analyzed using a four-parameter curve fit with a fixed minimum and maximum experimentally defined as the average positive and negative controls on each plate.
# human P2Y12 receptor, sequence (Q9H244 whole entry): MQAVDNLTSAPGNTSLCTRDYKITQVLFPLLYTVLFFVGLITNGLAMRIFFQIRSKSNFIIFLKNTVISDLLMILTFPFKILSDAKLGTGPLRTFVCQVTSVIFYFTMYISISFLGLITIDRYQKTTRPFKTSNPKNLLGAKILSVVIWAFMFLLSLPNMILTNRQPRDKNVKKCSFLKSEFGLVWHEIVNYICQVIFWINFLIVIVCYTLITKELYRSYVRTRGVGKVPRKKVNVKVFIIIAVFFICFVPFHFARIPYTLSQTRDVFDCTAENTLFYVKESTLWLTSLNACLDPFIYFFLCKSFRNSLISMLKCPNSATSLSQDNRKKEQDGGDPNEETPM
row,IC50,Molecule
1,0.132 µM,"CCOC(=O)[C@@H]1CCCN1C(=O)COc1cc(C(=O)N[C@@H](CCC(=O)O)C(=O)N2CCN(C(=O)OCC)CC2)nc2cc(C)ccc12 [Example 11, 4-[(S)-4-Carboxy-2-({4-[2-((S)-2-ethoxycarbonyl-pyrrolidin-1-yl)-2-oxo-ethoxy]-7-methyl-quinoline-2-carbonyl}-amino)-butyryl]-piperazine-1-carboxylic acid ethyl ester]"
2,0.067 µM,"CCOC(=O)N1CCN(C(=O)[C@H](CCC(=O)O)NC(=O)c2cc(OCC(=O)N3CCC[C@H]3C(=O)NCC(F)(F)F)c3ccccc3n2)CC1 [Example 121, 4-{(S)-4-Carboxy-2-[(4-{2-oxo-2-[(S)-2-(2,2,2-trifluoro-ethylcarbamoyl)-pyrrolidin-1-yl]-ethoxy}-quinoline-2-carbonyl)-amino]-butyryl}-piperazine-1-carboxylic acid ethyl ester]"
3,0.065 µM,"CCOC(=O)N1CCN(C(=O)[C@H](CCC(=O)O)NC(=O)c2cc(OCC(=O)N3CCC[C@H]3C(=O)NC3CCC3)c3cc(F)c(F)cc3n2)CC1 [Example 196, 4-[(S)-4-Carboxy-2-({4-[2-((S)-2-cyclobutylcarbamoyl-pyrrolidin-1-yl)-2-oxo-ethoxy]-6,7-difluoro-quinoline-2-carbonyl}-amino)-butyryl]-piperazine-1-carboxylic acid ethyl ester]"
